# In patent US20080118573A1, “Use of Heavy Metals in the Treatment of Biofilms” (priority 2004, published 2008):
# Several values for one entry are separate records, joined by “and”; a condition that tells them apart may be missing. Equal values may be shown once. Read-outs that look alike come from different tables or passages of the source. Marks after values point to notes of the source that are not given here.
# Key:
# [1] = system: Pseudomonas aeruginosa biofilms; experiment: Metal and antibiotic combination assay; type: cell-based; conditions: for MBC / MIC / MBEC: median of 4 replicates
# Method: Cells were grown to a mean density of 6.0×10^6 cfu/peg in LB+B1 media.
# • 1. […] All data are median values based on 4 replicates.
# P. aeruginosa biofilms = conditions: after 100 h of exposure; cited from earlier work
# [2] = system: Pseudomonas aeruginosa ATCC 27853 planktonic and biofilm cultures; type: cell-based; conditions: for Fold Tolerance (MBEC:MBC100) / MBEC / MBC100: MSVP; for MBEC: biofilm; for MIC: minimal media (MSVP), did not change with exposure time, mean ± SD of 28 trials; for MBC100: planktonic
# [3] = system: Pseudomonas aeruginosa ATCC 27853 planktonic and biofilm cultures; type: cell-based; conditions: for Fold Tolerance (MBEC:MBC100) / MBEC / MBC100: LB+B1; for MBEC: biofilm; for MBC100: planktonic; for MIC: rich media (LB+B1), 4 replicates
# [4] = system: Pseudomonas aeruginosa ATCC 27853 cell populations; type: cell-based; conditions: for eradication of the biofilm cultures with extended exposure times: 27 hours exposure
# [5] = system: Escherichia coli JM109 planktonic and biofilm bacteria; type: cell-based; conditions: LB+B1, 24 h exposure; for MIC: E. coli JM109; for MBEC: E. coli JM109 biofilm; for MBC: E. coli JM109 planktonic
# [6] = system: Pseudomonas aeruginosa 15442; experiment: Synergy matrix assay of polycide versus metals; type: cell-based
# [7] = system: Staphylococcus aureus ATCC 29213 planktonic and biofilm bacteria; type: cell-based; conditions: LB+B1, 24 h exposure; for MIC: S. aureus ATCC 29213; for MBEC: S. aureus ATCC 29213 biofilm; for MBC: S. aureus ATCC 29213 planktonic
# [8] = system: Pseudomonas aeruginosa ATCC 27853 planktonic and biofilm bacteria; type: cell-based; conditions: LB+B1, 24 h exposure; for MIC: P. aeruginosa ATCC 27853; for MBEC: P. aeruginosa ATCC 27853 biofilm; for MBC: P. aeruginosa ATCC 27853 planktonic
# [9] = system: Escherichia coli JM109 planktonic and biofilm bacteria; experiment: MBEC-HTP antibiotic susceptibility, E. coli; type: cell-based; conditions: CA-MHB, 24 h exposure
# Method: (§1) Luria-Bertani medium was chosen for two reasons: 1) its established use in studies of metal resistance, and 2) because of the use of rich media in NCCLS testing protocols for antimicrobial resistance. Antibiotic resistance assays were performed using cation-adjusted Mueller-Hinton broth (CA-MHB, BDH Inc.) and subcultures, MBC and MBEC bacterial counts were performed using trypticase soy agar (TSA, Difco).
# (§2) The present study used a novel high throughput method for screening biofilm susceptibility to metal cations and oxyanions: the MBEC device (MBEC Bioproducts Inc., Edmonton, Alberta, Canada, http://www.mbec.ca). The MBEC high throughput (MBEC-HTP) assay system consists of a shallow trough into which a plastic lid with 96 pegs fits. This peg lid also fits over a standard 96-well microtitre plate which can subsequently be used to setup serial dilutions of antimicrobial compounds. The bottom half of the MBEC device is a trough that has shallow channels that direct flow of an inoculated suspension over the pegs on the lid.
# (§3) The inoculum was standardized to a 1.0 McFarland standard and verified by viable counts. The 1.0 McFarland standard inoculum was diluted 30-fold with growth media, which served as the growth suspension to inoculate the MBECJ device.
# (§4) P. aeruginosa was incubated for 9 h, S. aureus for 24 h and E. coli for 24 h to generate approximately equivalent biofilms of 6.0×10^6 cfu/peg. Following the incubation period, growth of biofilm and planktonic cultures in the MBECJ device were discerned and verified by viable cell counts.
# (§5) Chloramphenicol (Sigma) was prepared in 50% ethanol and treated identically to the other antibiotics. 10% ethanol was added to the growth controls for chloramphenicol assays. […] Starting with the working solutions, serial two-fold dilutions were made in the wells of a 96-well plate (the challenge plate), leaving the first well of each row as a sterility control and the second as a growth control (i.e. no antibiotic).
# [10] = system: Pseudomonas aeruginosa ATCC 27853 planktonic and biofilm bacteria; experiment: MBEC-HTP antibiotic susceptibility, P. aeruginosa; type: cell-based; conditions: CA-MHB, 24 h exposure
# Method: as §1, §2, §3, §4, §5
# [11] = antibiotic or heavy metal alone, LB+B1
molecule,measurement,setting,value
O=C(O)c1cn(C2CC2)c2cc(N3CCNCC3)c(F)cc2c1=O [Ciprofloxacin],"MBEC in the presence of Cu^2+, times less than the MBEC for the antibiotic alone",[1]; 200 μg/ml Cu^2+,at least 16 times
same,MBC,"[1]; Pseudomonas aeruginosa, antibiotic in combination with 200 μg/ml Cu^2+, read-out: MBC",8 µg/mL
same,MIC,"[1]; Pseudomonas aeruginosa, antibiotic in combination with 200 μg/ml Cu^2+, read-out: MIC",4 µg/mL
same,MBC,"[1]; Pseudomonas aeruginosa, antibiotic in combination with 500 μg/ml Zn^2+, read-out: MBC",32 µg/mL
same,MIC,"[1]; Pseudomonas aeruginosa, antibiotic in combination with 500 μg/ml Zn^2+, read-out: MIC",0.25 to 1 µg/mL
same,MBC,"[1]; Pseudomonas aeruginosa, antibiotic or heavy metal alone, LB+B1, read-out: MBC",8 µg/mL
same,MBEC,[1]; antibiotic in combination with 200 μg/ml Cu^2+,16** μg/ml
same,MBEC,[1]; antibiotic in combination with 500 μg/ml Zn^2+,>64 µg/mL
same,log10 reduction in viable cell counts of biofilms,P. aeruginosa biofilms,< 1.5 log10
"[Cl-].[Cl-].[Co+2] [Co^2+, cobalt (II) chloride]",Fold Tolerance (MBEC:MBC100),[2]; exposure time 2 to 6 h,2.0
same,Fold Tolerance (MBEC:MBC100),[2]; exposure time 2 h,at least 2
same,Fold Tolerance (MBEC:MBC100),[2]; exposure time 8 h,1.3
same,Fold Tolerance (MBEC:MBC100),[2]; exposure time 10 h,1.2
same,Fold Tolerance (MBEC:MBC100),[2]; exposure time 27 h,1.0
same,MBEC,[2]; exposure time 2 to 6 h,≧278 mM
same,MBEC,[2]; exposure time 8 h,139 ± 0 mM
same,MBEC,[2]; exposure time 10 h,209 ± 80 mM
same,MBEC,[2]; exposure time 27 h,116 ± 36 mM
same,MIC,[2],2.0 ± 0.8 mM
same,MBC100,[2]; exposure time 2 to 6 h,139 ± 0 mM
same,MBC100,[2]; exposure time 8 h,104 ± 40 mM
same,MBC100,[2]; exposure time 10 h,174 ± 70 mM
same,MBC100,[2]; exposure time 27 h,114 ± 44 mM
same,Fold Tolerance (MBEC:MBC100),[3]; exposure time 2 h,2.7
same,Fold Tolerance (MBEC:MBC100),[3]; exposure time 27 h,2.0
same,MBEC,[3]; exposure time 2 h,≧280 mM
same,MBEC,[3]; exposure time 27 h,≧280 mM
same,MBC100,[3]; exposure time 2 h,104 ± 40 mM
same,MBC100,[3]; exposure time 27 h,140 ± 0 mM
same,MIC,[3],7.6 ± 2.2 mM
same,eradication of the biofilm cultures with extended exposure times,[4],complete eradication
"O.O.O.O.O.O=S(=O)([O-])[O-].[Cu+2] [Cu^2+, cupric sulphate]",MIC,[5],4.5 ± 1.4 mM
same,MBEC,[5],13 ± 4 mM
same,MBC,[5],15 ± 3 mM
same,Fold Tolerance (MBEC:MBC100),[2]; exposure time 8 to 10 h,2.0
same,Fold Tolerance (MBEC:MBC100),[2]; exposure time 4 h,2.0
same,Fold Tolerance (MBEC:MBC100),[2]; exposure time 6 h,1.7
same,Fold Tolerance (MBEC:MBC100),[2]; exposure time 27 h,1.1
same,MBEC,[2]; exposure time 8 to 10 h,32 ± 0 mM
same,MBEC,[2]; exposure time 2 h,≧258 mM
same,MBEC,[2]; exposure time 4 h,64 ± 45 mM
same,MBEC,[2]; exposure time 6 h,36 ± 20 mM
same,MBEC,[2]; exposure time 27 h,21 ± 11 mM
same,MIC,[2],3.8 ± 1.9 mM
same,MBC100,[2]; exposure time 8 to 10 h,16 ± 0 mM
same,MBC100,[2]; exposure time 2 h,20 ± 8 mM
same,MBC100,[2]; exposure time 4 h,32 ± 0 mM
same,MBC100,[2]; exposure time 6 h,21 ± 14 mM
same,MBC100,[2]; exposure time 27 h,19 ± 11 mM
same,MBC,[1]; [11],1024 µg/mL
same,MBEC,[1]; [11],1024 µg/mL
same,MIC,[1]; [11],512 to 1024 µg/mL
same,effect on the efficacy of the polycide,[6]; adding as little as 16 micrograms per ml of the metal,quadruple
same,MIC,[7],2.0 ± 0 mM
same,MBEC,[7],2.0 ± 0 mM
same,MBC,[7],2.0 ± 0 mM
same,Fold Tolerance (MBEC:MBC100),[3]; exposure time 2 h,4.5
same,Fold Tolerance (MBEC:MBC100),[3]; exposure time 27 h,1.0
same,MBEC,[3]; exposure time 2 h,72 ± 40 mM
same,MBEC,[3]; exposure time 27 h,16 ± 0 mM
same,MBC100,[3]; exposure time 2 h,16 ± 0 mM
same,MBC100,[3]; exposure time 27 h,16 ± 0 mM
same,MIC,[3],12 ± 5 mM
same,MIC,[8],12 ± 5 mM
same,MBEC,[8],14 ± 4.0 mM
same,MBC,[8],14 ± 4.0 mM
same,eradication of the biofilm cultures with extended exposure times,[4],complete eradication
NC[C@H]1O[C@H](O[C@H]2[C@H](O)[C@@H](O[C@H]3O[C@H](CO)[C@@H](O)[C@H](N)[C@H]3O)[C@H](N)C[C@@H]2N)[C@H](N)C[C@@H]1O [Tobramycin],log10 reduction in viable cell counts of biofilms,P. aeruginosa biofilms,less than 0.5 log10
same,MBEC,[9]; E. coli JM109 biofilm,16 ± 0 µg/mL
same,MIC,"[9]; Escherichia coli, E. coli JM109, read-out: MIC",4 µg/mL
same,MBC,"[9]; Escherichia coli, E. coli JM109 planktonic, read-out: MBC",8 µg/mL
same,MBEC,[10]; P. aeruginosa ATCC 27853 biofilm,112 ± 32 µg/mL
same,MIC,"[10]; Pseudomonas aeruginosa, ATCC27853, P. aeruginosa ATCC 27853, read-out: MIC",14 ± 4 µg/mL
same,MBC,"[10]; Pseudomonas aeruginosa, ATCC27853, P. aeruginosa ATCC 27853 planktonic, read-out: MBC",28 ± 8 µg/mL
"O=S(=O)([O-])[O-].[Zn+2] [Zn^2+, zinc sulphate]",MIC,[5],2.2 ± 0.7 mM
same,MBEC,[5],31 ± 0 mM
same,MBC,[5],31 ± 0 mM
same,Fold Tolerance (MBEC:MBC100),[2]; exposure time 10 h,2.3
same,Fold Tolerance (MBEC:MBC100),[2]; exposure time 27 h,1.0
same,MBEC,[2]; exposure time 2 to 8 h,>125 mM
same,MBEC,[2]; exposure time 10 h,≧256 mM
same,MBEC,[2]; exposure time 27 h,102 ± 47 mM
same,MIC,[2],9.5 mM and 9.5 ± 3.3 mM
same,MBC100,[2]; exposure time 2 to 8 h,>125 mM
same,MBC100,[2]; exposure time 10 h,109 ± 31 mM
same,MBC100,[2]; exposure time 27 h,102 ± 47 mM
same,MBC,[1]; [11],>8192 µg/mL
same,MBEC,[1]; [11],>8192 µg/mL
same,MIC,[1]; [11],4096 µg/mL
same,synergistic effect on polycide activity,[6],did not appear to have any synergistic effect
same,MIC,[7],2.0 ± 0 mM
same,MBEC,[7],>125 mM
same,MBC,[7],>125 mM
same,MBEC,[3]; exposure time 2 or 27 h,>125 mM
same,MBC100,[3]; exposure time 2 or 27 h,>125 mM
same,MIC,[3],78 ± 31 mM
same,MIC,[8],78 ± 31 mM
same,MBEC,[8],>125 mM
same,MBC,[8],>125 mM
same,biofilm killed,"[4]; 2 h exposure, FIG. 2 Panel A",90-99%
same,concentration tolerated by the surviving population,[4]; less than 0.1% survival of biofilm and planktonic cell populations,> 125 mM
lead nitrate [Pb^2+],Fold Tolerance (MBEC:MBC100),[2]; exposure time 2 to 4 h,4.0
same,Fold Tolerance (MBEC:MBC100),[2]; exposure time 6 h,3.0
same,Fold Tolerance (MBEC:MBC100),[2]; exposure time 8 h,4.9
same,Fold Tolerance (MBEC:MBC100),[2]; exposure time 10 h,3.0
same,Fold Tolerance (MBEC:MBC100),[2]; exposure time 27 h,1.6
same,MBEC,[2]; exposure time 2 to 4 h,≧79 mM
same,MBEC,[2]; exposure time 6 h,≧79 mM
same,MBEC,[2]; exposure time 8 h,59 ± 23 mM
same,MBEC,[2]; exposure time 10 h,59 ± 23 mM
same,MBEC,[2]; exposure time 27 h,26 ± 15 mM
same,MIC,[2],1.2 ± 0 mM
same,MBC100,[2]; exposure time 2 to 4 h,20 ± 0 mM
same,MBC100,[2]; exposure time 6 h,30 ± 11 mM
same,MBC100,[2]; exposure time 8 h,12 ± 5 mM
same,MBC100,[2]; exposure time 10 h,20 ± 0 mM
same,MBC100,[2]; exposure time 27 h,16 ± 6 mM
same,Fold Tolerance (MBEC:MBC100),[3]; exposure time 27 h,0.7
same,MBEC,[3]; exposure time 2 h,>40 mM
same,MBEC,[3]; exposure time 27 h,59 ± 23 mM
same,MBC100,[3]; exposure time 2 h,>40 mM
same,MIC,[3],12 ± 5 mM
same,eradication of the biofilm cultures with extended exposure times,[4],complete eradication
